Experimental data from the NIST ThermoML archive (doi:10.1016/j.fluid.2010.10.028).

Test: xn = mol fraction of the nth substance listed
Conditions: Liquid, Vibrating tube method

CC(C)=O [acetone] + CCCCCCC
Conditions	mass density [kg/m3]
337.71 K, 24950 kPa, x1 = 0.4	746.11
337.71 K, 24950 kPa, x1 = 0.8992	746.11
337.71 K, 29870 kPa, x1 = 0.801	735.19
337.71 K, 29930 kPa, x1 = 0.4	751.13
337.71 K, 29930 kPa, x1 = 0.8992	751.13
337.71 K, 34930 kPa, x1 = 0.4	755.89
337.71 K, 34930 kPa, x1 = 0.8992	755.89
337.71 K, 39920 kPa, x1 = 0.4	760.43
337.71 K, 39920 kPa, x1 = 0.8992	760.43
337.71 K, 44840 kPa, x1 = 0.492	715.3
337.71 K, 49900 kPa, x1 = 0.4	768.86
337.71 K, 49900 kPa, x1 = 0.8992	768.86
337.71 K, 54890 kPa, x1 = 0.4	772.81
337.71 K, 54890 kPa, x1 = 0.8992	772.81
337.71 K, 64860 kPa, x1 = 0.4	780.28
337.71 K, 64860 kPa, x1 = 0.8992	780.28
337.71 K, 69930 kPa, x1 = 0.492	733.51
337.71 K, 74770 kPa, x1 = 0.7024	757.51
337.71 K, 74840 kPa, x1 = 0.4	787.15
337.71 K, 74840 kPa, x1 = 0.8992	787.15
337.71 K, 74910 kPa, x1 = 0.492	736.73
337.71 K, 79750 kPa, x1 = 0.7024	760.71
337.71 K, 79820 kPa, x1 = 0.4	790.43
337.71 K, 79820 kPa, x1 = 0.8992	790.43
337.71 K, 79900 kPa, x1 = 0.492	739.82
337.71 K, 84890 kPa, x1 = 0.492	742.8
337.71 K, 89860 kPa, x1 = 0.801	780.47
337.71 K, 89870 kPa, x1 = 0.492	745.68
337.71 K, 94760 kPa, x1 = 0.4	799.66
337.71 K, 94760 kPa, x1 = 0.8992	799.66
337.71 K, 94820 kPa, x1 = 0.611	759.24
337.71 K, 94840 kPa, x1 = 0.492	748.47
337.71 K, 94840 kPa, x1 = 0.801	783.46
337.71 K, 99730 kPa, x1 = 0.4	802.55
337.71 K, 99730 kPa, x1 = 0.8992	802.55
337.71 K, 99820 kPa, x1 = 0.492	751.17
337.71 K, 104700 kPa, x1 = 0.4	805.37
337.71 K, 104700 kPa, x1 = 0.8992	805.37
337.71 K, 104790 kPa, x1 = 0.611	764.72
337.71 K, 104800 kPa, x1 = 0.492	753.81
337.71 K, 104800 kPa, x1 = 0.801	789.1
337.71 K, 109680 kPa, x1 = 0.4	808.11
337.71 K, 109680 kPa, x1 = 0.8992	808.11
337.71 K, 109770 kPa, x1 = 0.492	756.37
337.71 K, 109850 kPa, x1 = 0.611	767.36
337.71 K, 114650 kPa, x1 = 0.4	810.79
337.71 K, 114650 kPa, x1 = 0.8992	810.79
337.71 K, 114850 kPa, x1 = 0.492	758.9
337.71 K, 114860 kPa, x1 = 0.611	769.89
337.71 K, 119620 kPa, x1 = 0.4	813.4
337.71 K, 119620 kPa, x1 = 0.8992	813.4
337.71 K, 119840 kPa, x1 = 0.492	761.32
337.71 K, 124840 kPa, x1 = 0.492	763.7
337.71 K, 124850 kPa, x1 = 0.801	799.52
337.71 K, 129550 kPa, x1 = 0.4	818.42
337.71 K, 129550 kPa, x1 = 0.8992	818.42
337.71 K, 129840 kPa, x1 = 0.801	801.97
337.71 K, 129850 kPa, x1 = 0.492	766
337.72 K, 44910 kPa, x1 = 0.4	764.73
337.72 K, 44910 kPa, x1 = 0.8992	764.73
337.72 K, 59870 kPa, x1 = 0.4	776.58
337.72 K, 59870 kPa, x1 = 0.8992	776.58
337.72 K, 84800 kPa, x1 = 0.4	793.6
337.72 K, 84800 kPa, x1 = 0.8992	793.6
337.72 K, 89780 kPa, x1 = 0.4	796.66
337.72 K, 89780 kPa, x1 = 0.8992	796.66
337.72 K, 99810 kPa, x1 = 0.611	762.02
337.72 K, 124590 kPa, x1 = 0.4	815.94
337.72 K, 124590 kPa, x1 = 0.8992	815.94
337.72 K, 124870 kPa, x1 = 0.611	774.78
337.72 K, 129860 kPa, x1 = 0.611	777.16
347.61 K, 960 kPa, x1 = 0.7024	676.19
347.61 K, 4840 kPa, x1 = 0.7024	682.43
347.61 K, 9820 kPa, x1 = 0.7024	689.72
347.61 K, 14820 kPa, x1 = 0.7024	696.37
347.61 K, 19810 kPa, x1 = 0.7024	702.46
347.61 K, 24790 kPa, x1 = 0.7024	708.14
347.61 K, 29890 kPa, x1 = 0.7024	713.58
347.61 K, 34890 kPa, x1 = 0.7024	718.57
347.61 K, 39880 kPa, x1 = 0.7024	723.29
347.61 K, 44870 kPa, x1 = 0.7024	727.75
347.61 K, 49860 kPa, x1 = 0.7024	731.98
347.61 K, 54840 kPa, x1 = 0.7024	736.03
347.61 K, 59830 kPa, x1 = 0.7024	739.91
347.61 K, 64820 kPa, x1 = 0.7024	743.63
347.61 K, 69810 kPa, x1 = 0.7024	747.19
347.61 K, 74800 kPa, x1 = 0.7024	750.62
347.61 K, 79780 kPa, x1 = 0.7024	753.92
347.61 K, 84760 kPa, x1 = 0.7024	757.12
347.61 K, 89750 kPa, x1 = 0.7024	760.21
347.61 K, 94730 kPa, x1 = 0.7024	763.2
